Consider ten compounds from the supplement of paper PMC4932681.

Assay in all cases: viability inhibition at highest dose (% inhibition); higher = more growth inhibition
One experiment has as its system T-47D Tam2. Conditions: 4-OH-tamoxifen in medium 1 µM; 72 h. In a few lines: (§1)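 After seeding into 384-well plates with library drugs at five concentrations spanning a 10 000-fold range, breast cancer cell lines and their resistant derivatives were incubated 72 h at 37 °C. Resistant lines received medium with 1 μM of the selecting drug. CellTiter-Glo signal was read on a PHERAstar and scaled to vehicle-only and positive controls. Drug sensitivity score, relative IC50 (the curve midpoint) and top-dose inhibition came from logistic fits run in the Breeze pipeline.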

Another experiment concerns MCF-7. The following applies: 72 h. The method, boiled down: as §1
The test system of a further experiment is BT-474 Tam2. Conditions: 4-OH-tamoxifen in medium 1 µM; 72 h. The method, boiled down:
as §1

A further experiment concerns MCF-7 Tam1. Conditions: 4-OH-tamoxifen in medium 1 µM; 72 h. In a few lines:
as §1

The test system of a further experiment is ZR-75-1. The following applies: 72 h. In a few lines:
as §1

In a further experiment the test system is T-47D Tam1. The following applies: 4-OH-tamoxifen in medium 1 µM; 72 h. The method, boiled down:
as §1

In another experiment the test system is BT-474 Tam1. The following applies: 4-OH-tamoxifen in medium 1 µM; 72 h. In a few lines:
as §1

For a further experiment, the system named is ZR-75-1 Tam1. Conditions: 4-OH-tamoxifen in medium 1 µM; 72 h. The method, boiled down: as §1
The test system of another experiment is ZR-75-1 Tam2. The following applies: 4-OH-tamoxifen in medium 1 µM; 72 h. In a few lines:
as §1

Another experiment relates to T-47D. Conditions: 72 h. In a few lines:
as §1

A further experiment has as its system BT-474. Conditions: 72 h. The method, boiled down:
as §1

`CC(=O)Nc1ccc(C(=O)Nc2ccccc2N)cc1` [Tacedinaline (CI-994)] (drug 1000 nM): the “viability inhibition at highest dose” value is 15.3 with T-47D Tam2; -10.9 in the experiment with MCF-7 (4-OH-tamoxifen in medium 0 µM); -11.9 with MCF-7 (4-OH-tamoxifen in medium 1 µM); -4.77 in the experiment with BT-474 Tam2; 0.399 in the experiment with MCF-7 Tam1; -0.612 in the experiment on ZR-75-1 (4-OH-tamoxifen in medium 0 µM). The “viability inhibition at highest dose” value in the experiment with ZR-75-1 (4-OH-tamoxifen in medium 1 µM) was 5.35; in the experiment with T-47D Tam1 it was 6.74; in the experiment on BT-474 Tam1 it was -4.04; in the experiment on ZR-75-1 Tam1, -0.987; with ZR-75-1 Tam2, 6.17; in the experiment on T-47D (4-OH-tamoxifen in medium 0 µM), 0.774. The “viability inhibition at highest dose” value with T-47D (4-OH-tamoxifen in medium 1 µM) is 11.3; in the experiment on BT-474 (4-OH-tamoxifen in medium 0 µM), 1.78; with BT-474 (4-OH-tamoxifen in medium 1 µM) it was -3.82.
As to `Cc1ccc(-c2cc(C(F)(F)F)nn2-c2ccc(S(N)(=O)=O)cc2)cc1` [Celecoxib] (drug 10000 nM), the “viability inhibition at highest dose” value in the experiment on T-47D Tam2 is 18.3; in the experiment with MCF-7 (4-OH-tamoxifen in medium 0 µM), 15.2; with MCF-7 (4-OH-tamoxifen in medium 1 µM) it was 5.23; with BT-474 Tam2, 4.93; in the experiment on MCF-7 Tam1 it was 4.31; in the experiment with ZR-75-1 (4-OH-tamoxifen in medium 0 µM), -12. For the same compound, the “viability inhibition at highest dose” value with ZR-75-1 (4-OH-tamoxifen in medium 1 µM) was 11.6; in the experiment with T-47D Tam1, 2.27; in the experiment on BT-474 Tam1, 12.6; in the experiment with ZR-75-1 Tam1, 4.71; in the experiment on ZR-75-1 Tam2, -10.3; in the experiment on T-47D (4-OH-tamoxifen in medium 0 µM) it was -3.21. For the same compound, the “viability inhibition at highest dose” value was 5.57 with T-47D (4-OH-tamoxifen in medium 1 µM), -0.849 in the experiment with BT-474 (4-OH-tamoxifen in medium 0 µM) and 1.11 in the experiment with BT-474 (4-OH-tamoxifen in medium 1 µM).
As to `COc1cc2c(Oc3ccc4[nH]c(C)cc4c3F)ncnc2cc1OCCCN1CCCC1` [Cediranib (AZD2171, Recentin)] (drug 1000 nM), the “viability inhibition at highest dose” value is 2.12 with T-47D Tam2; 11.5 in the experiment on MCF-7 (4-OH-tamoxifen in medium 0 µM); 2.46 in the experiment with MCF-7 (4-OH-tamoxifen in medium 1 µM); 6.19 with BT-474 Tam2; 1.79 in the experiment on MCF-7 Tam1; 9.26 in the experiment with ZR-75-1 (4-OH-tamoxifen in medium 0 µM). Moreover, the “viability inhibition at highest dose” value in the experiment on ZR-75-1 (4-OH-tamoxifen in medium 1 µM) was 4.94; in the experiment with T-47D Tam1, 2.94; in the experiment on BT-474 Tam1 it was 15.2; in the experiment with ZR-75-1 Tam1, 4.06; in the experiment on ZR-75-1 Tam2 it was 5.44; with T-47D (4-OH-tamoxifen in medium 0 µM), 2.79. Moreover, the “viability inhibition at highest dose” value in the experiment with T-47D (4-OH-tamoxifen in medium 1 µM) came out at 7.26; in the experiment on BT-474 (4-OH-tamoxifen in medium 0 µM), 1.02; in the experiment on BT-474 (4-OH-tamoxifen in medium 1 µM), 39.4.
As for `O=S(=O)(c1cccc2cnccc12)N1CCCNCC1` [Fasudil  (HA-1077)] (drug 50000 nM), the “viability inhibition at highest dose” value is 20.1 in the experiment with T-47D Tam2; 21 with MCF-7 (4-OH-tamoxifen in medium 0 µM); -0.98 in the experiment on MCF-7 (4-OH-tamoxifen in medium 1 µM); -12.9 with BT-474 Tam2; 7.1 in the experiment on MCF-7 Tam1; -7.56 with ZR-75-1 (4-OH-tamoxifen in medium 0 µM). In addition, the “viability inhibition at highest dose” value was -6.81 in the experiment with ZR-75-1 (4-OH-tamoxifen in medium 1 µM); 2.59 with T-47D Tam1; -5.55 with BT-474 Tam1; 3.21 in the experiment with ZR-75-1 Tam1; -8.22 in the experiment with ZR-75-1 Tam2; -20.9 in the experiment with T-47D (4-OH-tamoxifen in medium 0 µM). The “viability inhibition at highest dose” value was -12.4 with T-47D (4-OH-tamoxifen in medium 1 µM), -7 in the experiment on BT-474 (4-OH-tamoxifen in medium 0 µM) and -17.4 with BT-474 (4-OH-tamoxifen in medium 1 µM).
For `COc1cccc2c1C(=O)c1c(O)c3c(c(O)c1C2=O)C[C@@](O)(C(C)=O)C[C@@H]3O[C@H]1C[C@H](N)[C@H](O)[C@H](C)O1` [Daunorubicin] (drug 1000 nM), the “viability inhibition at highest dose” value in the experiment with T-47D Tam2 is 68.4; in the experiment on MCF-7 (4-OH-tamoxifen in medium 0 µM), 78.9; in the experiment with MCF-7 (4-OH-tamoxifen in medium 1 µM), 87.8; with BT-474 Tam2, 32.7; in the experiment with MCF-7 Tam1, 32.2; in the experiment on ZR-75-1 (4-OH-tamoxifen in medium 0 µM) it was 63.6. Moreover, the “viability inhibition at highest dose” value amounted to 55.3 in the experiment on ZR-75-1 (4-OH-tamoxifen in medium 1 µM); 67.9 in the experiment with T-47D Tam1; 72.8 with BT-474 Tam1; 64.3 in the experiment on ZR-75-1 Tam1; 70.7 in the experiment on ZR-75-1 Tam2; 72.4 in the experiment with T-47D (4-OH-tamoxifen in medium 0 µM). Moreover, the “viability inhibition at highest dose” value with T-47D (4-OH-tamoxifen in medium 1 µM) stood at 73.5; in the experiment with BT-474 (4-OH-tamoxifen in medium 0 µM) it was 53.8; in the experiment with BT-474 (4-OH-tamoxifen in medium 1 µM), 95.4.
Turning to `CC[C@@H]1C(=O)N(C)c2cnc(Nc3ccc(C(=O)NC4CCN(C)CC4)cc3OC)nc2N1C1CCCC1` [BI 2536] (drug 1000 nM), the “viability inhibition at highest dose” value with T-47D Tam2 worked out at 34; in the experiment on MCF-7 (4-OH-tamoxifen in medium 0 µM), 39; in the experiment with MCF-7 (4-OH-tamoxifen in medium 1 µM), 29.9; in the experiment on BT-474 Tam2, 11.8; in the experiment with MCF-7 Tam1, 7.18; with ZR-75-1 (4-OH-tamoxifen in medium 0 µM), 12.7. The “viability inhibition at highest dose” value is 26.7 with ZR-75-1 (4-OH-tamoxifen in medium 1 µM); 30.3 in the experiment with T-47D Tam1; 27.9 in the experiment on BT-474 Tam1; 26.8 in the experiment on ZR-75-1 Tam1; 21.6 in the experiment with ZR-75-1 Tam2; 29.2 in the experiment with T-47D (4-OH-tamoxifen in medium 0 µM). For the same compound, the “viability inhibition at highest dose” value in the experiment with T-47D (4-OH-tamoxifen in medium 1 µM) turned out to be 19.9; in the experiment on BT-474 (4-OH-tamoxifen in medium 0 µM), 26; with BT-474 (4-OH-tamoxifen in medium 1 µM), 48.3.
As for `CO[C@@]12[C@H](COC(N)=O)C3=C(C(=O)C(C)=C(N)C3=O)N1C[C@@H]1N[C@@H]12` [Mitomycin C] (drug 10000 nM), the “viability inhibition at highest dose” value in the experiment with T-47D Tam2 is 10.8; with MCF-7 (4-OH-tamoxifen in medium 0 µM), 16.2; with MCF-7 (4-OH-tamoxifen in medium 1 µM), 11.4; in the experiment on BT-474 Tam2, 0.827; with MCF-7 Tam1, -6.06; in the experiment with ZR-75-1 (4-OH-tamoxifen in medium 0 µM) it was 25.5. The “viability inhibition at highest dose” value with ZR-75-1 (4-OH-tamoxifen in medium 1 µM) is 23.7; in the experiment on T-47D Tam1, 33.5; with BT-474 Tam1, 0.772; with ZR-75-1 Tam1, 28.3; in the experiment with ZR-75-1 Tam2 it was 23.4; with T-47D (4-OH-tamoxifen in medium 0 µM), 31.4. Also, the “viability inhibition at highest dose” value is -4.69 in the experiment with T-47D (4-OH-tamoxifen in medium 1 µM), -12.3 with BT-474 (4-OH-tamoxifen in medium 0 µM) and -7 with BT-474 (4-OH-tamoxifen in medium 1 µM).
As to `Nc1ccn([C@@H]2O[C@H](CO)[C@@H](O)[C@@H]2O)c(=O)n1` [Cytarabine] (drug 10000 nM), the “viability inhibition at highest dose” value in the experiment with T-47D Tam2 is -16.3; with MCF-7 (4-OH-tamoxifen in medium 0 µM), 29.1; in the experiment on MCF-7 (4-OH-tamoxifen in medium 1 µM) it was 12; with BT-474 Tam2 it was 1.43; in the experiment on MCF-7 Tam1 it was 6.46; with ZR-75-1 (4-OH-tamoxifen in medium 0 µM) it was 39.3. Besides, the “viability inhibition at highest dose” value with ZR-75-1 (4-OH-tamoxifen in medium 1 µM) came to 13; in the experiment with T-47D Tam1, 30.6; in the experiment on BT-474 Tam1, 22.1; with ZR-75-1 Tam1 it was 28.3; with ZR-75-1 Tam2, 27.4; in the experiment with T-47D (4-OH-tamoxifen in medium 0 µM) it was 36.9. Moreover, the “viability inhibition at highest dose” value with T-47D (4-OH-tamoxifen in medium 1 µM) is 6.47; in the experiment on BT-474 (4-OH-tamoxifen in medium 0 µM) it was -5.7; in the experiment with BT-474 (4-OH-tamoxifen in medium 1 µM), 11.
As to `C[C@]12CC[C@H](O)CC1=CC[C@@H]1[C@@H]2CC[C@]2(C)C(c3cccnc3)=CC[C@@H]12` [Abiraterone (CB-7598)] (drug 5000 nM), the “viability inhibition at highest dose” value was -1.44 in the experiment on T-47D Tam2; -13.6 in the experiment with MCF-7 (4-OH-tamoxifen in medium 0 µM); -10.3 in the experiment with MCF-7 (4-OH-tamoxifen in medium 1 µM); -1 with BT-474 Tam2; -8.38 in the experiment with MCF-7 Tam1; -6.86 in the experiment with ZR-75-1 (4-OH-tamoxifen in medium 0 µM). The “viability inhibition at highest dose” value in the experiment with ZR-75-1 (4-OH-tamoxifen in medium 1 µM) is -7.24; in the experiment with T-47D Tam1 it was -5.53; with BT-474 Tam1, 6.31; with ZR-75-1 Tam1 it was -0.517; with ZR-75-1 Tam2, -3.39; in the experiment with T-47D (4-OH-tamoxifen in medium 0 µM) it was -18.4. Also, the “viability inhibition at highest dose” value in the experiment on T-47D (4-OH-tamoxifen in medium 1 µM) is -16.6; in the experiment with BT-474 (4-OH-tamoxifen in medium 0 µM) it was -6.23; with BT-474 (4-OH-tamoxifen in medium 1 µM), -14.7.
On to `CC[C@@H]1C(=O)OC[C@@H]1Cc1cncn1C` [Pilocarpine] (drug 40000 nM), for which the “viability inhibition at highest dose” value in the experiment on T-47D Tam2 is 9.72; in the experiment on MCF-7 (4-OH-tamoxifen in medium 0 µM) it was -3.51; in the experiment with MCF-7 (4-OH-tamoxifen in medium 1 µM), 9.03; with BT-474 Tam2 it was 6.51; with MCF-7 Tam1 it was -6.84; with ZR-75-1 (4-OH-tamoxifen in medium 0 µM), -3.18. For the same compound, the “viability inhibition at highest dose” value is -6.19 with ZR-75-1 (4-OH-tamoxifen in medium 1 µM); -0.157 in the experiment on T-47D Tam1; 4.36 with BT-474 Tam1; 8.48 in the experiment on ZR-75-1 Tam1; -0.127 in the experiment on ZR-75-1 Tam2; -7.15 in the experiment on T-47D (4-OH-tamoxifen in medium 0 µM). Moreover, the “viability inhibition at highest dose” value in the experiment with T-47D (4-OH-tamoxifen in medium 1 µM) was -0.389; in the experiment with BT-474 (4-OH-tamoxifen in medium 0 µM), -0.744; in the experiment with BT-474 (4-OH-tamoxifen in medium 1 µM), -6.73.
